Values of other authors as cited in patent US20220288273A1, “OSTEOINDUCTIVE MODIFIED GELATIN HYDROGELS AND METHODS OF MAKING AND USING THE SAME” (THE REGENTS OF THE UNIVERSITY OF CALIFORNIA, priority 2019, published 2022).

Compound	water solubility
Cc1cc(C)c(C(=O)P(=O)([O-])c2ccccc2)c(C)c1.[Li+] [LAP, Lithium phenyl-2,4,6-trimethylbenzoylphosphinate]	high water solubility
CC(C)(O)C(=O)c1ccc(OCCO)cc1 [Irgacure-2959, 2-Hydroxy-4′-(2-hydroxyethoxy)-2-methylpropiophenone]	low water solubility
